Test results as given in patent publication US12221459B2, “Cancer treatment with (2,2-bishydroxymethyl) methylenecyclopropane nucleotides” (MEDIVIR AB, priority 2018, dated 2025).
Like-named read-outs stand apart in the source and are kept apart here.

Key:
[1] = test system: THP-1 (human acute monocytic leukemia); test: Leukemia cell line activity assay (Cell Counting Kit-8, 5 days), THP-1
Procedure: (§1) Compounds of the invention were evaluated for activity against the leukemia cell lines THP-1, EOL-1 and MV4-11, using the following assay:
(§2) Test compounds were made up to 10 mM stock solution in DMSO
(§3) Leukemia cells (THP-1, EOL-1 and MV4-11) were grown in a cell culture flask 75 cm^2 with approximately 100 ml complete cell medium. The cells were counted using a Scepter-hand held automated cell counter, using 60 μm sensors (Millipore) and suspended in complete cell medium to 2×10^5 cells. 100 μl of the cell suspension were seeded to all wells (2×10^4 cells/well).
(§4) The compounds were tested in twelve concentrations, 10-fold serial dilutions, 50 μM-5×10^−10 μM.
(§5) 100 μl from a compound dilution plate were transferred to the cell assay plate=200 μl/well total volume and incubated for 5 days, at 37° C., 5% CO2 incubator.
(§6) After 5 days, 10l of KIT-8 was added and the culture was incubated for 3-4 hours, at 37° C., 5% CO2 incubator.
(§7) Plate were read in the spectrophotometer at wavelength 450 nm with a reference filter of 620 nm.
(§8) CC50 values are calculated by plotting the degree of inhibition (compared to the vehicle ctrl) against the logarithm of the compound concentration. Result values in the dilution series are fitted to a 4-parameter sigmoidal dose-response curve described by the expression: F(x)=D+(A−D)/(1+(x/C)^B) where: • A=Minimum • B=Slope. • C=Inflection point. The inflection point is defined as the point on the curve where the curvature changes direction or signs. • D=Maximum • F=fraction inhibition

[2] = test system: EOL-1 (human); test: Leukemia cell line activity assay (Cell Counting Kit-8, 5 days), EOL-1; settings: read-out: EOL.1 CC50
Procedure: as §1, §2, §3, §4, §5, §6, §7, §8

[3] = test system: MV4-11 cells, human B-myelomonocytic leukemia; test: Leukemia cell line activity assay (Cell Counting Kit-8, 5 days), MV4-11
Procedure: as §1, §2, §3, §4, §5, §6, §7, §8

[4] = Structural integrity of triester phosphoroalaninates by LC MS over 22-29 days; assay type: physicochemical
Procedure: Instability of Triester Phosphoroalaninates
Intermediate compounds I-19 d2 and I-25 synthesised above are triesterphosphoro-alaninates resembling the prior art compound described in Yan et al, J Med Chem 2005 48 91-99:
The structural integrity of these model compounds was assessed by LC MS over a 22-29 day period, as follows: […]

[5] = read-out: THP-1 CC50, THP-1 cells, 5 days incubation
[6] = read-out: MV4-11 CC50, MV4-11 cells, 5 days incubation
[7] = Homo sapiens, THP-1, 120 h, read-out: THP-1 CC50, THP-1 cells, 5 days incubation
[8] = Homo sapiens, MV4-11, 120 h, read-out: MV4-11 CC50, MV4-11 cells, 5 days incubation

Compound: CCC(CC)COC(=O)[C@H](Cc1ccccc1)N[P@](=O)(OCC1(COC(=O)C(C)C)C/C1=C/n1ccc(N)nc1=O)Oc1ccccc1 (stereo partly drawn) [Example 25-2, 2-ethylbutyl((S)-(((Z)-2-((4-amino-2-oxopyrimidin-1 (2H)-yl)methylene)-1-((isobutyryloxy)methyl)cyclopropyl)methoxy)(phenoxy)phosphoryl)-L-phenylalaninate]
- CC50 [1, 5]: 0.41 µM
- CC50 ([2]; EOL-1 cells, 5 days incubation): 0.1 µM
- CC50 [3, 6]: 0.086 µM

Compound: CC(C)OC(=O)[C@H](C)N[P@](=O)(OC[C@@]1(CO)C/C1=C/n1cnc2c(=O)[nH]c(N)nc21)Oc1ccc(C2(C)CC2)cc1 [Intermediate I-25, (S)-Isopropyl 2-(((S)-(((S,Z)-2-((2-amino-6-oxo-1H-purin-9(6H)-yl)methylene)-1-(hydroxymethyl)cyclopropyl)methoxy)(4-(1-methylcyclopropyl)phenoxy)phosphoryl)amino)propanoate]
- LCMS purity ([4]; Day 0): 95.56%
- LCMS purity ([4]; Day 5): 88.14%
- LCMS purity ([4]; Day 14): 82.67%
- LCMS purity ([4]; Day 22): 77.76%
- LCMS purity ([4]; Day 29): 72.84%

Compound: CCCC(CCC)COC(=O)[C@H](C)N[P@](=O)(OC[C@@]1(COC(=O)[C@@H](N)C(C)C)C/C1=C/n1cnc2c(=O)[nH]c(N)nc21)Oc1ccccc1 [Example 1f-1, (S)-((S,Z)-2-((2-Amino-6-oxo-1H-purin-9(6H)-yl)methylene)-1-((((S)-(((S)-1-oxo-1-((2-propylpentyl)oxy)propan-2-yl)amino)(phenoxy)phosphoryl)oxy)methyl)cyclopropyl)methyl 2-amino-3-methylbutanoate]
- CC50 [1, 7]: 0.67 µM
- CC50 ([2]; Homo sapiens, EOL1, 120 h): 0.12 µM
- CC50 [3, 8]: 0.46 µM

Compound: CCCC(=O)OCC1(CO[P@@](=O)(N[C@@H](C)C(=O)O[C@@H](C)CCC)Oc2ccccc2)C/C1=C/n1cnc2c(=O)[nH]c(N)nc21 (stereo partly drawn) [Example 30-1, ((Z)-2-((2-amino-6-oxo-1,6-dihydro-9H-purin-9-yl)methylene)-1-((((S)-(((S)-1-oxo-1-(((S)-pentan-2-yl)ox)propan-2-yl)amino)(phenoxy)phosphoryl)oxy)methyl)cyclopropyl)methyl butyrate]
- CC50 [1, 7]: 0.46 µM
- CC50 ([2]; Homo sapiens, EOL1, 120 h): 0.94 µM
- CC50 [3, 8]: 0.43 µM

Compound: CCC(CC)COC(=O)[C@H](Cc1ccccc1)N[P@](=O)(OCC1(COC(=O)C(C)C)C/C1=C/n1cnc2c(=O)[nH]c(N)nc21)Oc1ccccc1 (single isomer, unassigned) [Example 20-2]
- CC50 [1, 7]: 0.9 µM
- CC50 ([2]; Homo sapiens, EOL1, 120 h): 3.6 µM
- CC50 [3, 8]: 0.38 µM

Compound: CCC[C@H](C)OC(=O)[C@H](C)N[P@](=O)(OC[C@]1(CO)C/C1=C/n1cnc2c(=O)[nH]c(N)nc21)Oc1ccc(Br)cc1 (single isomer, unassigned) [Intermediate I-19 d2]
- LCMS purity ([4]; Day 0): 96.86%
- LCMS purity ([4]; Day 5): 94.32%
- LCMS purity ([4]; Day 14): 88.76%
- LCMS purity ([4]; Day 22): 73.76%

Compound: CCCC(=O)OCC1(CO[P@@](=O)(N[C@@H](C)C(=O)OCC(CCC)CCC)Oc2ccccc2)C/C1=C/n1ccc(N)nc1=O (single isomer, unassigned) [Example 45-1]
- CC50 [1, 5]: 0.19 µM
- CC50 ([2]; EOL-1 cells, 5 days incubation): 0.059 µM
- CC50 [3, 6]: 0.18 µM

Compound: CCCC(=O)OCC1(CO[P@@](=O)(N[C@@H](C)C(=O)OCC(CCC)CCC)Oc2ccccc2)C/C1=C/n1ccc(N)nc1=O (single isomer, unassigned) [Example 32-1]
- CC50 [1, 5]: 0.19 µM
- CC50 ([2]; Homo sapiens, EOL1, 120 h): 0.059 µM
- CC50 [3, 6]: 0.18 µM

Compound: CCCC(=O)OC[C@]1(CO[P@@](=O)(N[C@@H](C)C(=O)O[C@@H](C)CCC)Oc2ccc(Br)cc2)C/C1=C/n1cnc2c(=O)[nH]c(N)nc21 [Example 12-1, ((S,Z)-2-((2-Amino-6-oxo-1H-purin-9(6H)-yl)methylene)-1-((((S)-(4-bromophenoxy)(((S)-1-oxo-1-((S)-pentan-2-yloxy)propan-2-yl)amino)phosphoryl)oxy)methyl)cyclopropyl)methyl butyrate]
- CC50 [1, 7]: 0.29 µM
- CC50 ([2]; Homo sapiens, EOL1, 120 h): 0.17 µM

Compound: CCCC(CCC)COC(=O)[C@H](C)N[P@](=O)(OCC1(COC(=O)C(C)(C)C)C/C1=C/n1cnc2c(=O)[nH]c(N)nc21)Oc1ccccc1 (stereo partly drawn) [Example 38, ((Z)-2-((2-amino-6-oxo-1,6-dihydro-9H-purin-9-yl)methylene)-1-((((S)-(((S)-1-oxo-1-((2-propylpentyl)oxy)propan-2-yl)amino)(phenoxy)phosphoryl)ox)methyl)cyclopropyl)methyl pivalate]
- CC50 [1, 7]: 0.19 µM
- CC50 ([2]; Homo sapiens, EOL1, 120 h): 0.21 µM
- CC50 [3, 8]: 0.31 µM

Compound: Nc1nc2c(ncn2/C=C2/CC2(CO)CO)c(=O)[nH]1 [Cyclopropavir, 2,2-bis-(hydroxymethyl) cyclopropylidene methyl guanine, reference compound]
- CC50 ([1]; Homo sapiens, THP-1, 120 h, read-out: THP-1 CC50): 5.1 µM
- CC50 ([2]; Homo sapiens, EOL1, 120 h): 11 µM
- CC50 ([3]; Homo sapiens, MV4-11, 120 h, read-out: MV4-11 CC50): 11 µM

Compound: COC(=O)[C@H](CC(C)C)N[P@](=O)(OCC1(COC(=O)C(C)C)C/C1=C/n1cnc2c(=O)[nH]c(N)nc21)Oc1ccccc1 (single isomer, unassigned) [Example 18-2]
- CC50 [1, 7]: 1.8 µM
- CC50 [3, 8]: 0.8 µM

Compound: CCCC(=O)OCC1(CO[P@@](=O)(N[C@@H](C)C(=O)O[C@@H](C)CCC)Oc2ccccc2)C/C1=C/n1ccc(N)nc1=O (single isomer, unassigned) [Example 29-1]
- CC50 [1, 7]: 0.71 µM
- CC50 [3, 8]: 1.2 µM

Compound: CCC(CC)COC(=O)[C@H](CC(C)C)N[P@](=O)(OCC1(COC(=O)C(C)C)C/C1=C/n1ccc(N)nc1=O)Oc1ccccc1 (stereo partly drawn) [Example 34-2, 2-ethylbutyl((S)-(((Z)-2-((4-amino-2-oxopyrimidin-1(2H)-yl)methylene)-1-((isobutyryloxy)methyl)cyclopropyl)methoxy)(phenoxy)phosphoryl)-L-leucinate]
- CC50 [1, 5]: 0.34 µM
- CC50 ([2]; EOL-1 cells, 5 days incubation): 0.17 µM
- CC50 [3, 6]: 0.44 µM

Compound: CCC[C@H](C)OC(=O)[C@H](C)N[P@](=O)(OC[C@@]1(COC(=O)C(C)C)C/C1=C/n1cnc2c(=O)[nH]c(N)nc21)Oc1ccccc1 [Example 6-2, ((S,Z)-2-((2-amino-6-oxo-1H-purin-9(6H)-yl)methylene)-1-((((S)-(((S)-1-oxo-1-((S)-pentan-2-yloxy)propan-2-yl)amino)(phenoxy)phosphoryl)oxy)methyl)cyclopropyl)methyl isobutyrate]
- CC50 [1, 7]: 0.74 µM
- CC50 ([2]; Homo sapiens, EOL1, 120 h): 0.19 µM
- CC50 [3, 8]: 0.43 µM

Compound: (S)-(S)-Pentan-2-yl 2-(((S)-(((S,Z)-1-(acetoxymethyl)-2-((2-amino-6-oxo-1H-purin-9(6H)-yl)methylene)cyclopropyl)methoxy)(4-bromophenoxy)phosphoryl)amino) [Example 8-1]
- CC50 [1, 5]: 0.26 µM
- CC50 ([2]; EOL-1 cells, 5 days incubation): 0.34 µM

Compound: CCCC(=O)OC[C@]1(CO[P@@](=O)(N[C@@H](C)C(=O)OCC(CCC)CCC)Oc2ccccc2)C/C1=C/n1cnc2c(=O)[nH]c(N)nc21 [Example 11-1, ((S,Z)-2-((2-Amino-6-oxo-1H-purin-9(6H)-yl)methylene)-1-((((S)-(((S)-1-oxo-1-((2-propylpentyl)oxy)propan-2-yl)amino)(phenoxy)phosphoryl)oxy)methyl)cyclopropyl)methyl butyrate]
- CC50 [1, 7]: 0.19 µM
- CC50 ([2]; Homo sapiens, EOL1, 120 h): 0.14 µM
- CC50 [3, 8]: 0.071 µM
